The values that follow come from patent publication EP2342182B1 (H. Lundbeck A/S, priority 2008, dated 2010).

pKd: −log10 of the molar value. Starred links: 1 amine or outer side, 2 acyl side, 3 side chain; linkers in the order of their positions; H or OH if unused. Non-standard residues stand in square brackets, D forms with d. Residues, ends and D or L forms follow the SMILES beside them. X1 = O=C([C@H](Cc1cnc(I)[nH]1)N[*:1])[*:2]

Data set [1] is described as follows: Free fraction in plasma (equilibrium dialysis). The class given is in vitro ADME. The note with it: human EDTA plasma, pH 7.4 buffer, 37 °C. The procedure: Example 14 Free fraction in plasma
Free fraction in human plasma has been determined by equilibrium dialysis between human EDTA plasma (Bioreclamation) and 0.1 M NaH2PO4 buffer adjusted to pH 7.4. The experiment was performed in a 96 well dialysis plate (HTD96b, htdialysis). Plasma was frozen at -80 °C immediately after purchasing. Membranes (HTD 96a/b Dialysis Membrane Strips, MWCO 12-14 K, htdialysis) were soaked for one hour in pure PBS and kept in PBS/EtOH 80:20 (v/v) in a closed bottle at 5 °C until use.
Plasma was thawed in cold water and centrifuged 5 min at 3000 rpm before use to move potential clots. The plasma supernatant was transferred to a new tube. Test compounds were diluted to 0.2 mM in DMSO. Plasma was spiked 1:100 with test compound (final concentration 2 µM).
The dialysis plate was assembled with membranes according to the instructions whereupon 150 µL phosphate buffer was loaded to the lower side of the wells immediately after assembling and spiked plasma was loaded to the upper side of the wells. The plate was sealed with sealing tape and incubated at 37 °C with gently shaking in 5 hours.
After 5 hours incubation the plate was removed from the incubator. The sealing tape was carefully removed and 70 µL from the buffer wells ("lower" side) were transferred to 96 well plates for analysis.
Samples were analysed by LC-MS-MS on a Sciex API 4000 (Applied Biosystems). […]
On the technique in general: In equilibrium dialysis only unbound substance equilibrates across the membrane.

Data set [2] deals with T1, human NK3 receptor (Homo sapiens, UniProt P29371).
T1 construct: expressed in transfected cells; membranes prepared from them
T1 sequence (P29371 1-465): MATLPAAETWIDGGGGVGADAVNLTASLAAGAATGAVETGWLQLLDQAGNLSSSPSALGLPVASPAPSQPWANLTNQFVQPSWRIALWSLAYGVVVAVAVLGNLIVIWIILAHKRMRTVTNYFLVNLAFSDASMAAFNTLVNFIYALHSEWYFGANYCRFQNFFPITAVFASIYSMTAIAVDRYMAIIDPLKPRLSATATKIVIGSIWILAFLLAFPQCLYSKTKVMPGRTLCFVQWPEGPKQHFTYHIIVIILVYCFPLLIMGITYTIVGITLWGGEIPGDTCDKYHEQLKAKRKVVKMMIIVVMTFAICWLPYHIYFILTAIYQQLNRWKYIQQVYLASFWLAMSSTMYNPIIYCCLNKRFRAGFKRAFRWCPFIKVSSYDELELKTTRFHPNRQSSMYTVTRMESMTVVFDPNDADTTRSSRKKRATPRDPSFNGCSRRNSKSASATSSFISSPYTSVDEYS
Nature of the data set: NK3 receptor binding assay (SPA-based competition binding with 125I-NKB). The note with it: read-out: Affinity (Ki/nM). The procedure:
Example 12 NK3 receptor binding assay
(§1) Membranepreparation: BHK cells stably expressing the human NK3 receptor were seeded in harvesting plates in Dulbeccos MEM containing GlutaMax (862 mg/l), 1mM sodium pyruvate, 10% fetal calf serum, 1% Pen/Strep, 1 mg/ml G418 and were grown at 34 °C in a humidified atmosphere containing 10% CO2. To increase receptor expression, 10 µM trichotatin A was added to the media 24 hours before harvest of the cells at a confluency of app 90%. Prior to the harvesting, the cells were washed twice with PBS without Mg^2+ og Ca^2+ and subsequently scrapped of in 10 ml PBS pr harvesting plate. The cells suspension were centrifuged at 1500xG in three minutes before resuspension in 15 mM Tris-HCl pH 7,5 buffer containing 2 mM MgCl2; 0,3 mM EDTA and 1 mM EGTA (buffer A). The cell suspention was homogenised and subsequently centrifuged at 40000xG in 30 minutes. The membrane-pellet was resuspended in buffer A containing 250 mM sucrose, alliquoted and stored at ― 80 °C.
Affinity assay description: The assay was performed as a SPA-based competition-binding assay in a 50 mM Tris pH 7.4 assay buffer containing 120 mM NaCl, 3 mM MnCl2, 40 µg/ml bacitracin, 2 µg/ml Chymostatin, 1 µg/ml Phosphoramidon and 4 µg/ml Leupeptin. […] The assay plate was subsequently under agitation incubated for 90 min at RT. The plate was centrifugated 10 minutes at 500xG and counted in a topcounter 5 minuttes pr well.
The total binding, which comprised less than 5 % of added radioligand, was defined using assay buffer whereas the non-specific binding was defined in the presence of 1 µM osanetant. The non-specific binding constituted app 5 % of the total binding.

Data set [3] deals with T1, human NK3 receptor. Nature of the data set: NK3 receptor efficacy and potency assay (FLIPR Calcium 4). The class given is cell-based. As to conditions: read-out: Potency (cIC50/nM). The procedure: Example 13 NK3 receptor efficacy and potency assay
BHK cells stably expressing the human NK3 receptor were seeded in 100 µl media in black walled clear-base 96-wells plates (Costar) aiming at a confluency of 95-100% at the day of assay. The assay was performed according to the FLIPR Calcium 4 Assay kit (Molecular Devices). At the day of the assay, the media was removed and the cells were washed once with the HBSS buffer (Hanks BSS buffer, pH 7,4 containing 20 mM Hepes) before 100 µl of a solution of the calcium assay reagent dissolved in the HBSS buffer containing 2,5 mM probinicid was added to the cells. The plates were incubated for 60 min at 34°C, 10% CO2 before use in the FLIPR for examination of fluorescence.
For efficacy and potency evaluation of compounds, these were diluted in HBSS buffer prior to test. For test of agonist activity, 25 µl of the diluted compound solution was added and the plate was analyzed for 5 minutes in the FLIPR. For test of antagonist activity, the plate was incubated for another 45 minutes before addition of 25 µl of the EC85 concentration ofNKB (app. 4 nM) as described above. The plates were subsequently analyzed for 5 minutes before the assay was terminated. The maximal increase in fluorescence over background following each ligand addition was determined.

The target in data set [4] is T1, human NK3 receptor. Nature of the data set: NK3 receptor binding assay (SPA-based competition binding with 125I-NKB). As to conditions: read-out: KD of 125I-NKB; three independent saturation assays, duplicate determinations. The method, then:
as §1, with “Example 12 NK3 receptor binding assay Membranepreparation:” for “Membranepreparation:”, “°C. Affinity assay description: The assay was performed as a SPA-based competition-binding assay in a 50 mM Tris pH 7.4 assay buffer containing 120 mM NaCl, 3 mM MnCl2, 40 µg/ml bacitracin, 2 µg/ml Chymostatin, 1 µg/ml Phosphoramidon and 4 µg/ml Leupeptin. […] The plate was centrifugated 10 minutes at 500xG and counted in a topcounter 5 minuttes pr well. […]” for “°C.”
Throughout, for Affinity (Ki/nM): competition with app 0.02 nM 125I-NKB.

In general, fraction unbound refers to the share of the substance not bound to proteins or other matrix. A low value points to little free substance. The compound `CCCNn1c(C)c(C(=O)N[C@H](c2ccccc2)C2CC2)c2cccc(F)c2c1=O` [Example 2k, 8-Fluoro-3-methyl-1-oxo-2-propylamino-1,2-dihydro-isoquinoline-4-corboxylic acid ((S)-cyclopropyl-phenyl-methyl)-amide] had a fraction unbound at 5 h, 2 µM in data set [1] of 0.124.

Consider `CCNn1c(C)c(C(=O)N[C@@H](CC)c2ccccc2)c2cccc(F)c2c1=O` [Example 2t, 2-Ethylamino-8-fluoro-3-methyl-1-oxo-1,2-dihydro-isoquinoline-4-carboxylic acid ((S)-1-phenyl-propyl)-amide], for which the fraction unbound at 5 h, 2 µM in data set [1] worked out at 0.146. Also, the Ki on human NK3 receptor [2] was found to be 43 nM.

In turn, `CCNn1c(C)c(C(=O)N[C@H](c2cccc(F)c2)C2CCC2)c2cccc(F)c2c1=O` [Example 2s, 2-Ethylamino-8-fluoro-3-methyl-1-oxo-1,2-dihydro-isoquinoline-4-carboxylic acid [(S)-cyclobutyl-(3-fluoro-phenyl)-methyl]-amide] had a fraction unbound at 5 h, 2 µM in data set [1] of 0.06. For the same compound, the Ki on human NK3 receptor [2] turned out to be 4.7 nM.

For `CCNn1c(C)c(C(=O)N[C@@H](CC)c2ccccc2)c2ccccc2c1=O` [Example 2a, 2-Ethylamino-3-methyl-1-oxo-1,2-dihydro-isoquinoline-4-carboxylic acid ((S)-1-phenylpropyl)-amide], the fraction unbound at 5 h, 2 µM in data set [1] is 0.162.

In data set [1], `Cc1c(C(=O)N[C@H](c2cccc(F)c2)C2CCC2)c2cccc(F)c2c(=O)n1NCCCF` [Example 10a, 8-Fluoro-2-(3-fluoro-propylamino)-3-methyl-1-oxo-1,2-dihydro-isoqunoline-4-carboxylic acid [(S)-cyclobutyl-(3-fluoro-phenyl)-methyl]-amide] showed a fraction unbound at 5 h, 2 µM of 0.089.

In data set [1], `CCCNn1c(C)c(C(=O)N[C@H](c2ccc(F)cc2)C2CCC2)c2cccc(F)c2c1=O` [Example 8c] returned a fraction unbound at 5 h, 2 µM of 0.046.

`CC[C@H](NC(=O)c1c(O)c(-c2ccccc2)nc2ccccc12)c1ccccc1` [Talnetant, talnetant, reference compound]: the unbound share (fraction unbound) at 5 h, 2 µM in data set [1] was 0.006.

`CCNn1c(C)c(C(=O)N[C@@H](CC)c2ccccc2)c2cccc(Cl)c2c1=O` [Example 2h, 8-Chloro-2-ethylamino-3-methyl-1-oxo-1,2-dihydro-isoquinoline-4-carboxylic acid ((S)-1-phenyl-propyl)-amide]: the fraction unbound at 5 h, 2 µM in data set [1] worked out at 0.062. Further, the Ki at human NK3 receptor [2] was 31 nM. Also, the IC50 at human NK3 receptor [3] amounted to 36 nM.

The pKd is the Kd on a negative log10 scale, so that one unit is a factor of ten. For `CSCC[C@H](NC(=O)[C@H](CC(C)C)NC(=O)CNC(=O)[C@@H](NC(=O)[C@H](Cc1ccccc1)NC(=O)[C@H](Cc1ccccc1)NC(=O)[C@H](CC(=O)O)NC(=O)[C@H](Cc1cnc(I)[nH]1)NC(=O)[C@H](CCSC)NC(=O)[C@@H](N)CC(=O)O)C(C)C)C(N)=O` [^125I-NKB] (H-DM[X1]DFFVGLM-NH2), at human NK3 receptor [4], the pKd is 9.15.

Turning to `CCNn1c(C)c(C(=O)N[C@H](c2ccccc2)C2CC2)c2cccc(F)c2c1=O` [Example 2i, 2-Ethylamino-8-fluoro-3-methyl-1-oxo-1,2-dihydro-isoquinoline-4-carboxylic acid ((S)-cyclopropyl-phenyl-methyl)-amide], the fraction unbound at 5 h, 2 µM in data set [1] came to 0.134. On human NK3 receptor [2], the Ki is 27 nM.

Regarding `CCNn1c(C)c(C(=O)N[C@H](c2ccc(F)cc2)C2CC2)c2cccc(F)c2c1=O` [Example 2w, 2-Ethylamino-8-fluoro-3-methyl-1-oxo-1,2-dihydro-isoquinoline-4-carboxylic acid [(S)-cyclopropyl-(4-fluoro-phenyl)-methyl]-amide], the fraction unbound at 5 h, 2 µM in data set [1] turned out to be 0.132. Also, the Ki at human NK3 receptor [2] came to 28 nM.

Take `CCCn1c(CN2CCNCC2)c(C(=O)N[C@H](c2cccc(F)c2)C2CCC2)c2cccc(F)c2c1=O` [Example 6b, 8-Fluoro-1-oxo-3-piperazin-1-ylmethyl-2-propyl-1,2-dhydro-isoquinoline-4-carboxylic acid [(S)-cyclobutyl-(3-fluoro-phenyl)-methyl]-amide]: the Ki on human NK3 receptor [2] came out at 6.6 nM. Moreover, at human NK3 receptor [3], the IC50 was determined as 18 nM.
